Measurements as given in the supplement of paper PMC7600603.

Assays:
[1] = system: DLD1 NRF2-WT; conditions: 72 h; CellTiter-Glo viability
Method in brief: (§1)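 In 384-well plates, library compounds were applied at 5 concentrations spanning a 10,000-fold range to isogenic DLD1 colorectal cancer cells, NRF2 wild-type or CRISPR gain-of-function, maintained in DMEM with 10% FBS. A Pherastar FS reader recorded CellTiter-Glo signal at 72 h, with normalisation to vehicle wells and 100-μM positive-control wells. Curves were fitted with a four-parameter logistic model. EC50 and drug sensitivity score, a normalised area under the curve, came from those curves.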

[2] = system: DLD1 NRF2-WT; assay: drug sensitivity score (DSS) viability (DSS score); higher = more sensitive; extreme values may be limits of the assay; conditions: 72 h; CellTiter-Glo viability
Method in brief: as §1

[3] = system: DLD1 NRF2-GOF; assay: drug sensitivity score (DSS) cytotoxicity (DSS score); higher = more toxic; extreme values may be limits of the assay; conditions: 72 h; CellTox Green cytotoxicity
Method in brief: (§2)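 In 384-well plates, isogenic DLD1 cells with NRF2 wild-type or CRISPR-edited status, grown in DMEM with 10% FBS, received library compounds at 5 concentrations spanning a 10,000-fold range. At 72 h, CellTox Green signals were read on a Pherastar FS reader and scaled between vehicle wells and 100-μM positive-control wells. Cytotoxicity endpoints, TC50 and a drug sensitivity score based on normalised area under the curve, came from logistic dose-response fits.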

[4] = system: DLD1 NRF2-WT; assay: as above; conditions: 72 h; CellTox Green cytotoxicity
Method in brief: as §2

[5] = system: DLD1 NRF2-GOF; assay: TC50 cytotoxicity; higher = less toxic; conditions: 72 h; CellTox Green cytotoxicity
Method in brief: as §2

[6] = system: DLD1 NRF2-WT; assay: TC50 cytotoxicity; higher = less toxic; conditions: 72 h; CellTox Green cytotoxicity
Method in brief: as §2

Row | SMILES | EC50 viability [1] [µM] | drug sensitivity score [2] | drug sensitivity score [3] | drug sensitivity score [4] | TC50 cytotoxicity [5] [µM] | TC50 cytotoxicity [6] [µM]
1 | O=C(O)C(=O)O.[NH-][C@@H]1CCCC[C@H]1[NH-].[Pt+2] [Oxaliplatin] | 25.3 | 3 |  |  |  | 
2 | CC(C)N(CCCNC(=O)Nc1ccc(C(C)(C)C)cc1)C[C@H]1O[C@@H](n2cc(Br)c3c(N)ncnc32)[C@H](O)[C@@H]1O [SGC0946] |  | 0.9 | 0 | 0 | > 10 | > 10
3 | CC[C@@H](C(=O)[C@@H](C)[C@@H](O)[C@H](C)[C@@H]1O[C@@H]([C@@H](CC)C(=O)O)CC[C@@H]1C)[C@H]1O[C@]2(C=C[C@@H](O)[C@]3(CC[C@@](C)([C@H]4CC[C@](O)(CC)[C@H](C)O4)O3)O2)[C@H](C)C[C@@H]1C [Salinomycin] |  |  | 0 | 0.2 | > 50 | > 50
4 | CO[C@H]1C[C@@H]2CC[C@@H](C)[C@@](O)(O2)C(=O)C(=O)N2CCCC[C@H]2C(=O)O[C@H]([C@H](C)C[C@@H]2CC[C@@H](O)[C@H](OC)C2)CC(=O)[C@H](C)/C=C(\C)[C@@H](O)[C@@H](OC)C(=O)[C@H](C)C[C@H](C)/C=C/C=C/C=C/1C [Sirolimus] |  | 3.1 |  |  |  | 
5 | Cc1c(C(=O)Nc2ccc(N3C[C@@H](C)O[C@@H](C)C3)nc2)cccc1-c1ccc(OC(F)(F)F)cc1 [Sonidegib] |  |  | 0 | 0 | > 10 | > 10
6 | C=CCN(/C=C1/C(=O)O[C@H](COC)[C@@]2(C)C1=C(O)C(=O)C1=C2[C@H](OC(C)=O)C[C@]2(C)C(=O)CC[C@@H]12)CC=C [Sonolisib] |  |  | 0 | 0 | > 10 | > 10
7 | CC(C)n1cnc2c(NCCc3ccc(O)cc3)nc(-c3csc4ccccc34)nc21 [StemRegenin 1] | 0.855 | 3.9 |  |  |  | 
8 | Cc1cc(C(C)Nc2ccccc2)c2nc(N3CCOCC3)cc(=O)n2c1 (configuration not stated) [TGX-221] |  |  | 0 | 0 | > 10 | > 10
9 | Nc1nc(NC2CC2)cc(-c2cccc(Cl)c2Cl)n1 [TH588] |  |  | 0 | 0 | > 25 | > 25
10 | CN(C(=O)c1ccc(F)cc1C(F)(F)F)C1CCN(c2nnc(-c3ccnn3C)c3ccccc23)CC1 [Taladegib] |  |  | 0 | 0 | > 10 | > 10
11 | C[C@@H]1CN(Cc2ccc(F)cc2)[C@@H](C)CN1C(=O)c1cc2c(C(=O)C(=O)N(C)C)cn(C)c2cc1Cl [Talmapimod] |  |  | 0 | 0 | > 10 | > 10
12 | O[C@H]1CC[C@H](Nc2ncc3nc(Nc4c(F)cc(F)cc4F)n([C@H]4CCOC4)c3n2)CC1 [Tanzisertib] |  |  | 0 | 0 | > 10 | > 10
13 | C[C@@H]1CCN(C(=O)CC#N)C[C@@H]1N(C)c1ncnc2[nH]ccc12 [Tofacitinib] |  |  | 0 | 0 | > 5 | > 5
14 | NC(=S)N/N=C/c1ncccc1N [Triapine] |  |  | 0 | 0 | > 10 | > 10
15 | COC(=O)c1ccc2c(c1)[nH]c1ncnc(NCCCN3CCCCC3)c12 [UM729] |  |  | 0 | 0 | > 10 | > 10
16 | COc1cc2c(NC3CCN(C(C)C)CC3)nc(N3CCC(F)(F)CC3)nc2cc1OCCCN1CCCC1 [UNC0642] |  |  | 0.1 | 0 | > 10 | > 10
17 | CCCCNc1ncc(C(=O)NCc2ccc(-n3ccnc3)cc2)c(NC2CCC(O)CC2)n1 (configuration not stated) [UNC2881] |  |  | 0 | 0 | > 2.5 | > 2.5
18 | NC(=O)c1cccc(-c2cccc(OC(=O)NC3CCCCC3)c2)c1 [URB597] |  |  | 0 | 0 | > 1 | > 1
19 | O=C(O)CC1CC(c2ccccc2)=NO1 (configuration not stated) [VGX-1027] |  |  | 0 | 0 | > 10 | > 10
20 | O=C(/C=C\n1cnc(-c2cc(C(F)(F)F)cc(C(F)(F)F)c2)n1)NNc1ccccn1 [Verdinexor] |  |  | 0 | 0 | > 1 | > 1
21 | CC[C@]1(O)C[C@H]2CN(CCc3c([nH]c4ccccc34)[C@@](C(=O)OC)(c3cc4c(cc3OC)N(C)[C@H]3[C@@](O)(C(=O)OC)[C@H](OC(C)=O)[C@]5(CC)C=CCN6CC[C@]43[C@@H]65)C2)C1 [Vinblastine] | 0.0052 | 22.5 | 3.4 | 4.1 | > 1 | 
22 | CS(=O)(=O)c1ccc(C(=O)Nc2ccc(Cl)c(-c3ccccn3)c2)c(Cl)c1 [Vismodegib] |  |  | 0 | 0 | > 10 | > 10
23 | Oc1nc(-c2ccc(C(F)(F)F)cc2)nc2c1CSCC2 [XAV-939] |  |  | 0 | 0 | > 10 | > 10
